Results: US20230263822A1, “MODULATION OF FACTOR 11 EXPRESSION” (Ionis Pharmaceuticals, Inc., priority 2008, published 2023)

How the values were obtained:
[1] = design: species or system Sprague-Dawley rats; conditions: rat, in vivo, sc, 20 mg/kg
Description: The concentration of the full-length oligonucleotide as well as the total oligonucleotide concentration (including the degraded form) was measured. The method used is a modification of previously published methods (Leeds et al., 1996; Geary et al., 1999) which consist of a phenol-chloroform (liquid-liquid) extraction followed by a solid phase extraction. An internal standard (ISIS 355868, a 27-mer 2′-O-methoxyethyl modified phosphorothioate oligonucleotide, […], designated herein as SEQ ID NO: 270) was added prior to extraction. […] The results are presented in Tables 91 and 92, expressed as μg/g liver or kidney tissue. Half-lives were then calculated using WinNonlin software ([…]).

human Factor 11 mRNA [2] = test: Antisense inhibition of human Factor 11 in HepG2 cells, electroporation, 8,000 nM (Example 30); type: cell-based; conditions: electroporation, 8,000 nM antisense oligonucleotide
Outline: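 HepG2 cells electroporated with 8,000 nM 5-10-5, 5-8-5 or 6-8-6 MOE gapmers (phosphorothioate, 5-methylcytidine), ~24 h. Factor 11 mRNA quantified by qRT-PCR, normalised to RIBOGREEN total RNA. Reported as percent inhibition versus untreated cells.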

[3] = design: species or system CD1 mice; conditions: mouse, in vivo, sc, 50 mg/kg
Description: The concentration of the full-length oligonucleotide was measured. The method used is a modification of previously published methods (Leeds et al., 1996; Geary et al., 1999) which consist of a phenol-chloroform (liquid-liquid) extraction followed by a solid phase extraction. An internal standard (ISIS 355868, a 27-mer 2′-O-methoxyethyl modified phosphorothioate oligonucleotide, […], designated herein as SEQ ID NO: 270) was added prior to extraction. […] The results are presented in Table 85 expressed as μg/g liver tissue.

human Factor 11 mRNA [4] = test: Antisense inhibition of human Factor 11 in HepG2 cells by microwalk gapmers, lipofectin, 75 nM (Example 3); type: cell-based; conditions: HepG2 cells, lipofectin, gapmers targeted to nucleobases 1275 to 1318 of SEQ ID NO: 1
Outline: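 HepG2 cells (10,000/well) were transfected via lipofectin with 75 nM 20-mer MOE gapmers (phosphorothioate, 5-methyl-C) for about 24 h. Factor 11 mRNA was measured by qRT-PCR, normalized to RIBOGREEN total RNA, and given as percent inhibition versus untreated cells.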

[5] = Viscosity of ISIS antisense oligonucleotides, micro-viscometer at 25 °C (Example 47); type: physicochemical; conditions: for Concentration: concentration of the viscosity sample, UV reading at 260 nM at 85° C.; for Viscosity: in water, micro-viscometer at 25° C., at the concentration of the same line
Outline: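 Oligonucleotide (32-35 mg) was dissolved in 120 μL water by heating at 50° C, and viscosity was measured by micro-viscometer at 25° C. Concentration was checked by UV at 260 nm at 85° C on a dilution in water. Screening cut-off: >40 cP at 165-185 mg/mL.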

human Factor 11 mRNA [6] = test: Dose-dependent inhibition of human Factor 11 in HepG2 cells, electroporation 123.46-10,000 nM (Example 31); type: cell-based; conditions: for Percent inhibition of Factor 11 mRNA at 123.47 nM / Percent inhibition of Factor 11 mRNA at 370.37 nM / Percent inhibition of Factor 11 mRNA at 1,111.11 nM / Percent inhibition of Factor 11 mRNA at 3,333.33 nM / Percent inhibition of Factor 11 mRNA at 10,000.0 nM: approx. 16 hours, relative to untreated control cells; for Percent inhibition of Factor 11 mRNA at 1,111.11 nM: electroporation, 1,111.11 nM; for Percent inhibition of Factor 11 mRNA at 3,333.33 nM: electroporation, 3,333.33 nM; for Percent inhibition of Factor 11 mRNA at 10,000.0 nM: electroporation, 10,000.0 nM
Outline: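 HepG2 cells were electroporated with antisense oligonucleotide at 123.46, 370.37, 1,111.11, 3,333.33 and 10,000 nM and harvested about 16 hours later. Factor 11 mRNA was quantified by qRT-PCR and normalised to total RNA (RIBOGREEN). Inhibition is expressed relative to untreated cells.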

Row | Substance | Half-life of ISIS oligonucleotides in the liver and kidney [1] [days] | Percent inhibition of human Factor 11 mRNA levels (human Factor 11 mRNA [2]) [%] | Half-Life in the liver [3] [days] | % inhibition (human Factor 11 mRNA [4]) [%] | Concentration [5] [mg/mL] | Viscosity [5] [cP] | Percent inhibition of Factor 11 mRNA at 123.47 nM (human Factor 11 mRNA [6]; electroporation) [%] | Percent inhibition of Factor 11 mRNA at 370.37 nM (human Factor 11 mRNA [6]; electroporation) [%] | Percent inhibition of Factor 11 mRNA at 1,111.11 nM (human Factor 11 mRNA [6]) [%] | Percent inhibition of Factor 11 mRNA at 3,333.33 nM (human Factor 11 mRNA [6]) [%] | Percent inhibition of Factor 11 mRNA at 10,000.0 nM (human Factor 11 mRNA [6]) [%] | IC50 (human Factor 11 mRNA [6]; electroporation, Factor 11 mRNA expression) [nM]
1 | 416859 (antisense GACGGCATTGGTGCACAGTT; 5-10-5 gapmer, further chemistry not given here) [compound 416859] | 19 | 85 | 19.0 | 90 | 161 | 10 |  |  |  |  |  | 
2 | 416866 (antisense CTGGCAGCGGACGGCATTGG; 5-10-5 gapmer, further chemistry not given here) [compound 416866] | 16 | 84 | 16.0 | 88 | 166 | >100 |  |  |  |  |  | 
3 | 416860 (antisense CGGACGGCATTGGTGCACAG; 5-10-5 gapmer, further chemistry not given here) [compound 416860] | 21 | 89 | 20.6 | 88 | 154 | >100 | 0 | 28 | 39 | 41 | 40 | 
4 | 416867 (antisense ACTGGCAGCGGACGGCATTG; 5-10-5 gapmer, further chemistry not given here) [compound 416867] | 19 | 85 | 18.9 | 83 | 168 | 8 |  |  |  |  |  | 
5 | 416852 (antisense TGGTGCACAGTTTCTGGCAG; 5-10-5 gapmer, further chemistry not given here) [compound 416852] | 28 | 87 | 28.4 | 84 | 169 | 29 |  |  |  |  |  | 
6 | 416861 (antisense GCGGACGGCATTGGTGCACA; 5-10-5 gapmer, further chemistry not given here) [compound 416861] | 25 | 90 | 24.5 | 92 | 110 | 14 | 0 | 15 | 27 | 66 | 80 | 2000
7 | 416848 (antisense CACAGTTTCTGGCAGGCCTC; 5-10-5 gapmer, further chemistry not given here) [compound 416848] | 24 | 87 | 23.5 | 86 | 158 | 6 |  |  |  |  |  | 
8 | 416863 (antisense CAGCGGACGGCATTGGTGCA; 5-10-5 gapmer, further chemistry not given here) [compound 416863] | 20 | 86 | 19.8 | 83 | 165 | 9 |  |  |  |  |  | 
